Columns and labels:
[1] = test system: epimastigotes of T. cruzi Arequipa strain; test: Screening against extracellular epimastigotes (resazurin); assay type: cell-based, Trypanosoma cruzi; details: Trypanosoma cruzi; Table S1; cultured epimastigote form of T. cruzi; read-out: Activity IC50
Description: Trypanocidal activity against epimastigotes of T. cruzi Arequipa strain (MHOM/Pe/2011/Arequipa, discrete typing unit V) was tested as previously described. In short, 5 × 10^5 epimastigotes·mL^−1 were treated by adding the tested compounds at a concentration range from 100 to 0.2 µM in 96-well microplates (200 µL·well^−1) for 48 h. Subsequently, resazurin sodium salt (Sigma-Aldrich) was added to be incubated for further 24 h. Finally, the absorbance was measured, and the trypanocidal activity was expressed as the IC50 (inhibitory concentration 50) using GraphPad Prism 6 software. Each compound concentration was tested in triplicate in three independent experiments.

Mammalian Vero cells = test: Cytotoxicity test on Vero cells (resazurin); assay type: cell-based; details: Chlorocebus sabaeus; Table S1; cultured Vero cells; read-out: Toxicity IC50 Vero cell
Description: Mammalian Vero cells (EACC No. 84113001), cultured as previously reported, were used to determine the cytotoxicity of the tested compounds [56]. In short, 1.25 × 10^4 Vero cells·mL^−1 were treated by adding the compounds at a concentration range from 400 to 1 µM in 96-well microplates (200 µL·well^−1) at 37 °C for 48 h. Subsequently, resazurin sodium salt (Sigma-Aldrich) was added to be incubated for further 24 h. Finally, cell viability was determined following the same procedure as described to assess the trypanocidal activity in the epimastigotes. Each compound concentration was tested in triplicate in three independent experiments.

Row | Structure (SMILES) | IC50 [1] [µM] | IC50 (Mammalian Vero cells) [µM]
1 | O=S(=O)(Nc1ccc([Se][Se]c2ccc(NS(=O)(=O)c3ccc(C(F)(F)F)cc3)cc2)cc1)c1ccc(C(F)(F)F)cc1 [compound 42] | 5.9 ± 0.4 | 36 ± 2.3
2 | N#C[Se]CC(=O)C12CC3CC(CC(C3)C1)C2 [compound 31] | 13.2 ± 0.8 | 85.5 ± 4.9
3 | Brc1ccc(C[Se][Se]Cc2ccc(Br)cc2)cc1 [compound 2] | 39.3 ± 4.1 | 30.7 ± 2.1
4 | COc1ccc(S(=O)(=O)Nc2ccc([Se][Se]c3ccc(NS(=O)(=O)c4ccc(OC)cc4)cc3)cc2)cc1 [compound 38] | 27.8 ± 1.6 | 40.3 ± 2.5
5 | O=S(=O)(Nc1ccc([Se][Se]c2ccc(NS(=O)(=O)c3ccccc3F)cc2)cc1)c1ccccc1F [compound 37] | 46.1 ± 3.1 | 39.6 ± 3.1
6 | N#Cc1ccc(S(=O)(=O)Nc2ccc([Se][Se]c3ccc(NS(=O)(=O)c4ccc(C#N)cc4)cc3)cc2)cc1 [compound 40] | 3.8 ± 0.1 | 16 ± 1.7
7 | N#C[Se]Cc1ccc(C#N)cc1 [compound 13] | 1.9 ± 0.7 | 12.8 ± 0.7
8 | COc1cc2oc(=O)cc(C[Se]C#N)c2cc1OC [compound 30] | 30.9 ± 1.4 | 109 ± 10.5
9 | N#C[Se]Cc1cccc([N+](=O)[O-])c1 [compound 17] | 37.4 ± 2.6 | 81.2 ± 4.8
10 | Cc1ccc(C[Se][Se]Cc2ccc(C)cc2)cc1 [compound 12] | 19.4 ± 1.5 | 4.9 ± 0.7
11 | O=S(=O)(Nc1ccc([Se][Se]c2ccc(NS(=O)(=O)c3ccc(Br)cc3)cc2)cc1)c1ccc(Br)cc1 [compound 33] | 10.2 ± 0.8 | 49.7 ± 3.2
12 | O=S(=O)(Nc1ccc([Se][Se]c2ccc(NS(=O)(=O)c3cccs3)cc2)cc1)c1cccs1 [compound 48] | 1.8 | 15.7 ± 1.1
13 | O=[N+]([O-])c1ccc(C[Se][Se]Cc2ccc([N+](=O)[O-])cc2)cc1 [compound 6] | 13.6 ± 0.7 | 28.2 ± 1.1
14 | O=S(=O)(Nc1ccc([Se][Se]c2ccc(NS(=O)(=O)c3ccccc3Cl)cc2)cc1)c1ccccc1Cl [compound 35] | 28.4 ± 1.7 | 69 ± 5.3
15 | N#Cc1ccc(C[Se][Se]Cc2ccc(C#N)cc2)cc1 [compound 14] | 27.9 ± 2.9 | 8.9 ± 1.5
16 | N#C[Se]Cc1cc2c(cc1Br)OCO2 [compound 23] | 14.1 ± 0.9 | 38.9 ± 2.1
17 | N#C[Se]Cc1cccc2cccnc12 [compound 25] | 10.3 ± 0.8 | 12.6 ± 0.3
18 | N#Cc1cccc(C[Se][Se]Cc2cccc(C#N)c2)c1 [compound 22] | 39.7 ± 2.6 | 29.8 ± 3
19 | N#C[Se]Cc1ccc([N+](=O)[O-])cc1 [compound 5] | 21.8 ± 2.2 | 28.6 ± 2.4
20 | O=S(=O)(Nc1ccc([Se][Se]c2ccc(NS(=O)(=O)c3ccc(F)cc3)cc2)cc1)c1ccc(F)cc1 [compound 36] | 11.1 ± 0.8 | 70.8 ± 4.8
21 | N#C[Se]Cc1ccc2ccccc2n1 [compound 27] | 99.5 ± 6.1 | 68.3 ± 6.7
22 | O=S(=O)(Nc1ccc([Se][Se]c2ccc(NS(=O)(=O)c3ccc4ccccc4c3)cc2)cc1)c1ccc2ccccc2c1 [compound 44] | 5.6 ± 1.1 | 30.8 ± 2.2
23 | O=[N+]([O-])c1cccc(C[Se][Se]Cc2cccc([N+](=O)[O-])c2)c1 [compound 18] | 1.5 ± 0.3 | 7.3 ± 1.1
24 | N#C[Se]Cc1c2ccccc2cc2ccccc12 [compound 28] | 21.4 ± 0.9 | 169 ± 9.7
25 | Brc1cc2c(cc1C[Se][Se]Cc1cc3c(cc1Br)OCO3)OCO2 [compound 24] | 45.7 ± 2.6 | 61.8 ± 4.1
26 | O=[N+]([O-])c1ccccc1C[Se][Se]Cc1ccccc1[N+](=O)[O-] [compound 16] | 18.4 ± 2.3 | 18.9 ± 2.4
27 | N#C[Se]Cc1ccccc1 [compound 3] |  | 53.3 ± 2.5
28 | N#C[Se]Cc1nc2ccccc2nc1C[Se]C#N [compound 29] | 32.1 ± 1.1 | 67.4 ± 3.5
29 | O=[N+]([O-])c1ccc(S(=O)(=O)Nc2ccc([Se][Se]c3ccc(NS(=O)(=O)c4ccc([N+](=O)[O-])cc4)cc3)cc2)cc1 [compound 39] | 17.1 ± 1.3 | 11.7 ± 2.7

From PMC8147293, “Library of Selenocyanate and Diselenide Derivatives as In Vivo Antichagasic Compounds Targeting Trypanosoma cruzi Mitochondrion” (Pharmaceuticals, 2021)
